# Laboratory results taken from US20240325398A1, “COMBINATION THERAPIES” (Infinity Pharmaceuticals, Inc., priority 2014, published 2024).
# How the values were obtained:
# KARPAS-299 = test: Combination study, ATPLite 72 h, dose matrix (Synergy Score, CI50); conditions: combination with Compound 1
# Jeko-1 = test: as above; conditions: combination with Compound 1
# Protocol: (§1) Cells are thawed from a liquid nitrogen preserved state. Once cells have been expanded and divide at their expected doubling times, screening begins. Cells are seeded in growth media in either black 1536-well or 384-well tissue culture treated plates. Cells are then equilibrated in assay plates via centrifugation and placed in incubators attached to the Dosing Modules at 37° C. for 24 hours before treatment. […] These Tzero (To) plates are read using ultra-sensitive luminescence on Envision plate readers (Perkin Elmer). Treated assay plates are incubated with compound for 72 hours. After 72 hours, plates are developed for endpoint analysis using ATPLite. All data points are collected via automated processes, quality controlled and analyzed using Zalicus software.
# (§2) where T is treated cell count and V is untreated (vehicle) cell count (at 72 hours). I ranges from 0% (when T=V) to 100% (when T=0). […] The measure of effect in the experiment can be the inhibition of cellular response relative to the untreated level (vehicle alone). […] The inhibition ranges from 0% at the untreated level to 100% when T=0. Inhibition levels are negative for agents that actually increase levels. Other effect measures, such as an activity ratio r=T/V may be more appropriate for some assays. When activity ratios (e.g, fold increase over stimulated control) are being used, the effect can be measured using an induction 1=ln(T/V). With this definition, all effect expressions are the same as for inhibition.
# (§3) Growth Inhibition (GI) is used as a measure of cell viability. […] A GI reading of 100% represents complete growth inhibition—T72 compound-treated and T0 vehicle signals are matched. […] A GI reading of 200% represents complete death of all cells in the culture well. Compounds reaching an activity plateau of GI 200% are considered cytotoxic. GI is calculated by applying the following test and equation:
# (§4) Combination analysis data were collected in a 6×6 dose matrix. Synergy is calculated by comparing a combination's response to those of its single compound, against the drug-with-itself dose-additive reference model. Deviations from dose additivity may be assessed visually on an isobologram or numerically with a Combination Index (CI). […] Additive effect is CI=1.0. […] Antagonistic effect is CI>1.0.
# (§5) To measure combination effects in excess of Loewe additivity, a scalar measure to characterize the strength of synergistic interaction termed the Synergy Score is devised. The Synergy Score is calculated as:
# (§6) The fractional inhibition for each component agent and combination point in the matrix is calculated relative to the median of all vehicle-treated control wells. The Synergy Score equation integrates the experimentally-observed activity volume at each point in the matrix in excess of a model surface numerically derived from the activity of the component agents using the Loewe model for additivity. Additional terms in the Synergy Score equation (above) are used to normalize for various dilution factors used for individual agents and to allow for comparison of synergy scores across an entire experiment. The inclusion of positive inhibition gating or an Idata multiplier removes noise near the zero effect level, and biases results for synergistic interactions at that occur at high activity levels.
# (§7) Loewe Volume (Loewe Vol) is used to assess the overall magnitude of the combination interaction in excess of the Loewe additivity model. Loewe Volume is particularly useful when distinguishing synergistic increases in a phenotypic activity (positive Loewe Volume) versus synergistic antagonisms (negative Loewe Volume). […] This model defines additivity as a non-synergistic combination interaction where the combination dose matrix surface should be indistinguishable from either drug crossed with itself.
# U-2932 = test: as above
# Protocol: as §1, §2, §3, §4, §5, §6
# Loewe Volume (Loewe Vol) is used to assess the overall magnitude of the combination interaction in excess of the Loewe additivity model. Loewe Volume is particularly useful when distinguishing synergistic increases in a phenotypic activity (positive Loewe Volume) versus synergistic antagonisms (negative Loewe Volume). […] This model defines additivity as a non-synergistic combination interaction where the combination dose matrix surface should be indistinguishable from either drug crossed with itself. The calculation for Loewe additivity is:
# NCI-H929 = test: as above; conditions: combination with Compound 1
# Protocol: as §1, §2, §3, §4, §5, §6, §7
# HBL-1 = test: as above
# GRANTA-519 = test: as above; conditions: combination with Compound 1
# Protocol: as §1, §2, §3, §4, §5, §6, §7
# DoHH2 tumor = assay type: in vivo
# Protocol: In particular, tolerability of the combination treatment was assessed in DoHH2 tumor bearing CB17.SCID female mice (a follicular lymphoma subcutaneous model). […] Plasma samples were collected on day 7 (trough, 1, 2, 4, and 6 h post dose) and on day 14 (2 h post final dose).
# [1] = tested on: Compound 1-resistant SU-DHL-4 clones; test: CTG (Cell Titer Glo) IC50, Compound 1-resistant clones; assay type: cell-based; conditions: Compound 1-resistant clones versus control cells, FIG. 10
# Protocol: The DMSO stock for each compound was diluted to 5 mM or 1 mM with DMSO. A 1:1000 dilution was performed into the plated cells (10 uL) for a final of 1 uM or 5 uM (final DMSO […]). Cells were counted 2 times per week and cell densities were adjusted back to 2.5×10^5 c/mL as needed. Media/Compound was replenished as needed and Media/Compound was replaced 1× per week. Compound treatment lasted for 28 days. Compound was washed out for 1 week and cells were subsequently used in assays to determine resistance after 4 weeks of treatment.
# The cell line pool was treated with compound for an additional 28 days prior to subcloning. Altogether, the cell line pool was under selective pressure for a total of 8 weeks.
# Cell lines were subcloned at 3, 1, and 0.3 cells per well (cpw). 1:10 of conditioned medium (CM) was included in medium in addition to corresponding DMSO control or compound. During subcloning optimization experiments, the SU-DHL-4 cell line could only be subcloned in the presence of 1:10 conditioned medium. […]
# All cell lines subcloned grew out. […] Once expanded in a 24 well plate, the 12 clones per cell line were evaluated for viability by flow using the Dead_Live kit (Invitrogen #L23101).
# Clones for parent, DMSO and Compound 1-R cell lines were selected based on their P1 vs P2 distribution determined by FSCH vs SSCH scatter plot. […]
# [2] = combination with CAL-101, Example 2
# [3] = combination with Cmpd 1, Example 2
# [4] = combination with Compound 1, 72 h
smiles,measurement,setting,value
"C[C@@H]1C[C@H]2[C@@H]3CCC4=CC(=O)C=C[C@]4(C)[C@@]3(F)[C@@H](O)C[C@]2(C)[C@@]1(O)C(=O)CO [dexamethasone, (8S,9R,10S,11S,13S,14S,16R,17R)-9-Fluoro-11,17-dihydroxy-17-(2-hydroxyacetyl)-10,13,16-trimethyl-6,7,8,9,10,11,12,13,14,15,16,17-dodecahydro-3H-cyclopenta[a]phenanthren-3-one]",Synergy Score growth inhibition,KARPAS-299,A1 (A1=0.0001 to <1)
same,Synergy Score inhibition,KARPAS-299,A1 (A1=0.0001 to <1)
same,CI50 growth inhibition,Jeko-1,U (U=0.7 to <1)
same,CI50 inhibition,Jeko-1,S (S=0.01 to <0.5)
same,Synergy Score growth inhibition,Jeko-1,A3 (A3=>3)
same,Synergy Score inhibition,Jeko-1,A3 (A3=>3)
same,CI50 growth inhibition,U-2932; [2],S (S=0.01 to <0.5)
same,CI50 inhibition,U-2932; [2],S (S=0.01 to <0.5)
same,Synergy Score growth inhibition,U-2932; [2],A2 (A2=1 to <3)
same,Synergy Score inhibition,U-2932; [2],A2 (A2=1 to <3)
same,CI50 growth inhibition,U-2932; [3],S (S=0.01 to <0.5)
same,CI50 inhibition,U-2932; [3],S (S=0.01 to <0.5)
same,Synergy Score growth inhibition,U-2932; [3],A3 (A3=>3)
same,Synergy Score inhibition,U-2932; [3],A2 (A2=1 to <3)
same,CI50 growth inhibition,U-2932; [4],S (S=0.01 to <0.5)
same,CI50 inhibition,U-2932; [4],S (S=0.01 to <0.5)
same,Synergy Score growth inhibition,U-2932; [4],A3 (A3=>3)
same,Synergy Score inhibition,U-2932; [4],A2 (A2=1 to <3)
same,CI50 growth inhibition,NCI-H929,S (S=0.01 to <0.5)
same,CI50 inhibition,NCI-H929,U (U=0.7 to <1)
same,Synergy Score growth inhibition,NCI-H929,A3 (A3=>3)
same,Synergy Score inhibition,NCI-H929,A2 (A2=1 to <3)
same,CI50 growth inhibition,HBL-1; [2],T (T=0.5 to <0.7)
same,CI50 inhibition,HBL-1; [2],S (S=0.01 to <0.5)
same,Synergy Score growth inhibition,HBL-1; [2],A2 (A2=1 to <3)
same,Synergy Score inhibition,HBL-1; [2],A2 (A2=1 to <3)
same,CI50 growth inhibition,HBL-1; [3],T (T=0.5 to <0.7)
same,CI50 inhibition,HBL-1; [3],U (U=0.7 to <1)
same,Synergy Score growth inhibition,HBL-1; [3],A2 (A2=1 to <3)
same,Synergy Score inhibition,HBL-1; [3],A2 (A2=1 to <3)
same,CI50 growth inhibition,HBL-1; [4],S (S=0.01 to <0.5)
same,CI50 inhibition,HBL-1; [4],U (U=0.7 to <1)
same,Synergy Score growth inhibition,HBL-1; [4],A3 (A3=>3)
same,Synergy Score inhibition,HBL-1; [4],A2 (A2=1 to <3)
same,CI50 growth inhibition,GRANTA-519,S (S=0.01 to <0.5)
same,Synergy Score growth inhibition,GRANTA-519,A3 (A3=>3)
same,Synergy Score inhibition,GRANTA-519,A1 (A1=0.0001 to <1)
"C[C@H](Nc1ncnc2[nH]cnc12)c1cc2cccc(Cl)c2c(=O)n1-c1ccccc1 [Compound 1, (S)-3-(1-((9H-purin-6-yl)amino)ethyl)-8-chloro-2-phenylisoquinolin-1(2H)-one]",tumor volume,"DoHH2 tumor; Compound 1 50 mg/kg QD PO plus dexamethasone 5 mg/kg Q3D IP, after 12 days, versus vehicle, Compound 1 alone or dexamethasone alone, FIG. 8",lower
same,tumor growth inhibition,"DoHH2 tumor; Compound 1 50 mg/kg QD in combination with dexamethasone 5 mg/kg Q3D IP, compared to either monotherapy",greater tumor growth inhibition
same,tolerability of the combination (body weight),DoHH2 tumor; co-administration of dexamethasone and Compound 1 in mice,tolerable
same,average IC50 for inhibition of the resistant cells versus control cells,[1],higher
